Where two headings read alike, the source gives them in different places.
Tests used:
[1] = target: Ba/F3 L858R/T790M/C797S EGFR triple mutant cell line (Homo sapiens, UniProt P00533, T790M/C797S/L858R, cells depend on it); assay: Cell proliferation inhibition experiment (CellTiter-Glo), Ba/F3 L858R/T790M/C797S; assay type: cell-based; conditions: 72 hours, Cell Titer-Glo, read-out: Ba/F3 (L858R/T790M/C797S) IC50
Protocol: (§1) 3) 30 nL of gradient diluted compound was transferred into the 384-well experimental plate using Echo 550 (Labcyte) at a DMSO final concentration of 0.1%, and the culture plate was incubated in a cell incubator for 72 hours (37° C., 5% CO2).
(§2) 4) 30 μL of Cell Titer-Glo reagent was added to each well and left for 30 minutes at room temperature and protected from light.
(§3) 5) Envision microplate reader (PerkinElmer) detected chemiluminescence signals.
(§4) 6) GraphPad Prism 8 software was used for data analysis to obtain the IC50 of the compounds of the present disclosure and the positive control.

[2] = tested on: EGFR wild-type cell line A431; assay: Cell proliferation inhibition experiment (CellTiter-Glo), A431; assay type: cell-based; conditions: A431 cells, Cell Titer-Glo, read-out: A431 EGFR WT IC50
Protocol: A431 cells, purchased from ATCC.
1) A431 cells were inoculated in a 384-well culture plate at a density of 800 cells per well, 30 μL per well, placed in a cell incubator, and cultured for 24 hours (37° C., 5% CO2).
as §1, §2, §3, §4

[3] = target: T1, wild-type EGFR (Homo sapiens, UniProt P00533); assay: Enzymology experiment in vitro (HTRF/FRET kinase activity), wild-type EGFR; assay type: biochemical; conditions: HTRF KinEASE-TK, read-out: EGFR (WT) IC50
T1 construct: purchased Signalchem
Protocol: (§5) 1. Experimental Materials
(§6) HTRF KinEASE-TK kit detection reagent, purchased from Cisbio
(§7) 1) 10 nL of gradient diluted compound was transferred into a 384-well experimental plate using Echo 550 (Labcyte).
(§8) 2) 5 μL of 2×EGFR enzyme solution was added to the 384-well experimental plate and incubated at room temperature for 10 minutes.
(§9) 3) 5 μL of 2× substrate solution containing polypeptide and ATP was added to the 384-well experimental plate and incubated at room temperature for 40 minutes.
(§10) 4) 10 μL of detection solution containing EDTA, XL665-labeled streptavidin and Eu^3+-labeled antibody was added thereto and incubated at room temperature for 1 hour.

[4] = target: Ba/F3 De119/T790M/C797S EGFR triple mutant cell line (Homo sapiens, UniProt P00533, T790M/C797S, cells depend on it, form not given); assay: Cell proliferation inhibition experiment (CellTiter-Glo), Ba/F3 De119/T790M/C797S; assay type: cell-based; conditions: Ba/F3 Del19/T790M/C797S EGFR triple mutant cells, 72 hours, Cell Titer-Glo; read-out: Ba/F3 (Del19/T790M/C797S) IC50
Protocol: as §1, §2, §3, §4

[5] = target: T2, L858R/T790M/C797S triple mutant EGFR (Homo sapiens, UniProt P00533, C797S/L858R/T790M); assay: Enzymology experiment in vitro (HTRF/FRET kinase activity), L858R/T790M/C797S triple mutant EGFR; assay type: biochemical; conditions: HTRF KinEASE-TK, read-out: EGFR (L858R/T790M/C797S) IC50
T2 construct: purchased Signalchem
Protocol: as §5, §6, §7, §8, §9, §10

Chain of Ba/F3 L858R/T790M/C797S EGFR triple mutant cell line (P00533 whole entry T790M/C797S/L858R): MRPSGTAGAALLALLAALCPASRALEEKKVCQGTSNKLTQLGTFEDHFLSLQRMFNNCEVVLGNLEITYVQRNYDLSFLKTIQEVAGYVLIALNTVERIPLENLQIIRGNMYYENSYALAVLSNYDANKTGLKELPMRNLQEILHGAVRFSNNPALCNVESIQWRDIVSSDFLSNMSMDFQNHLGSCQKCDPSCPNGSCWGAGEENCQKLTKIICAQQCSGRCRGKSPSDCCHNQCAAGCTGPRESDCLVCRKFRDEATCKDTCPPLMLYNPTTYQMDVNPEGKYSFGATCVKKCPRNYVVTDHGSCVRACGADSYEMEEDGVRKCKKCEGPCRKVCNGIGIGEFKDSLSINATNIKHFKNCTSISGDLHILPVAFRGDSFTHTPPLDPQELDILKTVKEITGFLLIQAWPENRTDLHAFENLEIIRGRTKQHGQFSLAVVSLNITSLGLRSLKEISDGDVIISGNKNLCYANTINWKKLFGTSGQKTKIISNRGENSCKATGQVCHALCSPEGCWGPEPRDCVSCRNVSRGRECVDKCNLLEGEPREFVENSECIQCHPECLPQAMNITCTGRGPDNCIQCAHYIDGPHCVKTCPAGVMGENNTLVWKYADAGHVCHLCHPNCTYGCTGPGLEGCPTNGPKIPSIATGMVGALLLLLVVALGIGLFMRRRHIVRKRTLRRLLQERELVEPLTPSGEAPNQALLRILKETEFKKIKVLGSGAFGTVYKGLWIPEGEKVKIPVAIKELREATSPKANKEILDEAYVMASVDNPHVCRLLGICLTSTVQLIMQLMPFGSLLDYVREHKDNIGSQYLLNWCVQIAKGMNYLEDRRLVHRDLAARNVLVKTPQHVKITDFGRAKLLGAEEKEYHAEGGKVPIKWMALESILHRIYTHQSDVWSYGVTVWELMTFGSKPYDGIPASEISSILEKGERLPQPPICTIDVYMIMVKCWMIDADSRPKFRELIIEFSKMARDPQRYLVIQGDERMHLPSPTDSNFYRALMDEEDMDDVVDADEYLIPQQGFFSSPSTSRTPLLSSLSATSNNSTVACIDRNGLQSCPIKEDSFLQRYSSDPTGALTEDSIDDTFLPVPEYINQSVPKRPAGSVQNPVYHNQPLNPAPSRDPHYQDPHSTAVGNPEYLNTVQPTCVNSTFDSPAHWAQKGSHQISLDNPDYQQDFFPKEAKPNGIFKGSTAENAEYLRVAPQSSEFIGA
Chain of Ba/F3 De119/T790M/C797S EGFR triple mutant cell line (P00533 with tags, fused parts or gaps DEL746-750/T790M/C797S, form open): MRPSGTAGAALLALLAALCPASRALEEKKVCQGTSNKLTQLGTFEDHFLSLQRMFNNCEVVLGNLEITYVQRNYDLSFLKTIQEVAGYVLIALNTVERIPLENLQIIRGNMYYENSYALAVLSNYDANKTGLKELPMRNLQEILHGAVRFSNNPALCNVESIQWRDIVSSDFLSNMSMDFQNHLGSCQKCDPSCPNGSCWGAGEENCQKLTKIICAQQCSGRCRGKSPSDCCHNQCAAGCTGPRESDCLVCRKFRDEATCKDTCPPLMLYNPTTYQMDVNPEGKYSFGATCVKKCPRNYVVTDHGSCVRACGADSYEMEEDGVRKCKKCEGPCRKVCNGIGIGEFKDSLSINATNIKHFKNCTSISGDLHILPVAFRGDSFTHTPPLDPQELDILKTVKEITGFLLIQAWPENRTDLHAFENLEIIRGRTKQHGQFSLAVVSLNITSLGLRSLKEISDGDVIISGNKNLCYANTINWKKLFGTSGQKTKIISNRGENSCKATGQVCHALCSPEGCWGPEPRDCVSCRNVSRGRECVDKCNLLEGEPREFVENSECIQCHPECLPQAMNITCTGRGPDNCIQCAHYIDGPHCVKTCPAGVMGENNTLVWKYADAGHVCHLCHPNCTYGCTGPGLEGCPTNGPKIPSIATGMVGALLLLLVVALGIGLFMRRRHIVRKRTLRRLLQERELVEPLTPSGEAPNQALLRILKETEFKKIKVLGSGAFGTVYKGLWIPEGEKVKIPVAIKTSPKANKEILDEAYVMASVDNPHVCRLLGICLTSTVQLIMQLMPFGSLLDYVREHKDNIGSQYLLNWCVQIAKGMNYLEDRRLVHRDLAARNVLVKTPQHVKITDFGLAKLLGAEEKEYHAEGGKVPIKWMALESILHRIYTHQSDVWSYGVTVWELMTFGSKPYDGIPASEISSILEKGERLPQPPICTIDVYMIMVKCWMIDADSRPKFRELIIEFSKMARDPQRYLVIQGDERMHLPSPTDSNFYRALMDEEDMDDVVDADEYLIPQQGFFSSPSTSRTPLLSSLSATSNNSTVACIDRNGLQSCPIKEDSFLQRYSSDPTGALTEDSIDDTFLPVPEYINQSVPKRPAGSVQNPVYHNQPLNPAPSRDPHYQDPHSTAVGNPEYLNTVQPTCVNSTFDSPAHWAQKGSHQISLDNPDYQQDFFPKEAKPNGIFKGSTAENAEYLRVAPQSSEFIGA
T1 sequence (P00533 25-1210): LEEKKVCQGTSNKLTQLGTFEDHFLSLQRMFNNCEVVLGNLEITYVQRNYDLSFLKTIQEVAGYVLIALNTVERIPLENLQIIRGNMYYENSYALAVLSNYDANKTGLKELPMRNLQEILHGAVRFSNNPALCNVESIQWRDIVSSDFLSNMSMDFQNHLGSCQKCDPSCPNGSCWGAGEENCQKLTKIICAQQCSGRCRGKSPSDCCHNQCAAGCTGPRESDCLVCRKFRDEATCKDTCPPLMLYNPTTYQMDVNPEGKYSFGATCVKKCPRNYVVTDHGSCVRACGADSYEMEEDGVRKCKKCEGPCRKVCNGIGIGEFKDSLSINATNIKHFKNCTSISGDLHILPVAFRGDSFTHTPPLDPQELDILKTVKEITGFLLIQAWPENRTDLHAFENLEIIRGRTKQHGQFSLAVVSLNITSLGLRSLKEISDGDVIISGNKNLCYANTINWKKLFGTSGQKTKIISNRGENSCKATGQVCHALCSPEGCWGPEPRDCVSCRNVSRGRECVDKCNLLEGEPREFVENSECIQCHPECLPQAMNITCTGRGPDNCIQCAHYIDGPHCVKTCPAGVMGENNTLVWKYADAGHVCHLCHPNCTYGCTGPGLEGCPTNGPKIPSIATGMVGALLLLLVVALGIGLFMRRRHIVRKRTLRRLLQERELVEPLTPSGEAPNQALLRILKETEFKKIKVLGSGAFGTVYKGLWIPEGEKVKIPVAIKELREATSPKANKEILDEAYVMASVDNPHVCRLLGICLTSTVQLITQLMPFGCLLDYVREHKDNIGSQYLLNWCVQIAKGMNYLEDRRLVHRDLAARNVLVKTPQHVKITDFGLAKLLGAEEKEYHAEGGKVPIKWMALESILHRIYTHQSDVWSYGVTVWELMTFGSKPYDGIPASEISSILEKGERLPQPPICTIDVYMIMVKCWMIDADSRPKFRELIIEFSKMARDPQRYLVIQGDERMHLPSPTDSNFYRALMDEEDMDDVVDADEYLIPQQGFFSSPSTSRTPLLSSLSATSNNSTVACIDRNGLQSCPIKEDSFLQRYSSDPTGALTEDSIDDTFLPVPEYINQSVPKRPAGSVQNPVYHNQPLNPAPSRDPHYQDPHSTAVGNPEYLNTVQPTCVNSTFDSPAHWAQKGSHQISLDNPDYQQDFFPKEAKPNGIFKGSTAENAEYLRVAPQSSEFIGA
T2 sequence (P00533 25-1210 T790M/C797S/L858R): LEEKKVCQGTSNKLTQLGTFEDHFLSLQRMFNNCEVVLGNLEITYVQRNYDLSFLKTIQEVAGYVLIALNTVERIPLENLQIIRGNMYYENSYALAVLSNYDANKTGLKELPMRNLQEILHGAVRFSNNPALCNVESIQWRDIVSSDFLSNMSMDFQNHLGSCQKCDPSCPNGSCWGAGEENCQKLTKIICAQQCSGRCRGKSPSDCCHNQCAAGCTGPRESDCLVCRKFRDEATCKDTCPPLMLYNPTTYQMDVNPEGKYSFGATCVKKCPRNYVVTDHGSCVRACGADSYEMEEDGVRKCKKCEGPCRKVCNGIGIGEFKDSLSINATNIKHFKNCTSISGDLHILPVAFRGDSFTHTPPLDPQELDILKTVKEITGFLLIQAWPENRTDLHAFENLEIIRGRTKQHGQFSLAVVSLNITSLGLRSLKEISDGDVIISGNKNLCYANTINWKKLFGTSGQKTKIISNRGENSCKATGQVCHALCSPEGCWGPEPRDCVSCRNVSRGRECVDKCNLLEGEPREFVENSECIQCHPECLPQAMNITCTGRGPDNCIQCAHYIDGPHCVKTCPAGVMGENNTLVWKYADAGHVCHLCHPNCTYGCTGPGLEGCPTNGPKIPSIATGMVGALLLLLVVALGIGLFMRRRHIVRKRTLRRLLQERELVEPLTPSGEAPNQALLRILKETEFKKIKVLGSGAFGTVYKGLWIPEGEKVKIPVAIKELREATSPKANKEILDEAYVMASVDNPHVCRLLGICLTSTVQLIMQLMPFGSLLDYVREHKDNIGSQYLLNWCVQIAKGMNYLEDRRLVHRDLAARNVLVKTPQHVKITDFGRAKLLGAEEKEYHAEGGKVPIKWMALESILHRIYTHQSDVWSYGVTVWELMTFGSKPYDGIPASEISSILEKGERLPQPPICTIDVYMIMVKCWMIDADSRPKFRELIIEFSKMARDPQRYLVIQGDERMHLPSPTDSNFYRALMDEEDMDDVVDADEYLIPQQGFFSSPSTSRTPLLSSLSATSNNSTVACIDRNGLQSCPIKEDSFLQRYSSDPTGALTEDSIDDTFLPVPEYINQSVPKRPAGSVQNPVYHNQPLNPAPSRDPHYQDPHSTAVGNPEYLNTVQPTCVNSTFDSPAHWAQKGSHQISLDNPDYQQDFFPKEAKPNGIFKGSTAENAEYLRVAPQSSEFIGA

| SMILES | GI50 [1] | IC50 ([2]; Homo sapiens, A-431, 72 h) | IC50 [3] | GI50 [4] | IC50 [5] | IC50 ([2]; 72 hours) |
| --- | --- | --- | --- | --- | --- | --- |
| COc1cc(N2CC(C)OC(C)C2)c(-c2cnn(C)c2)cc1Nc1ncc(Br)c(Nc2cc3c(cc2P(C)(C)=O)CC3)n1 (racemic) [compound 136] | 57.1 nM | 1750 nM | 99.5 nM | 13.7 nM | 5.3 nM |  |
| COc1cc(N2CCC(N3CCOC(C)C3)CC2)c(-c2cnn(C)c2)cc1Nc1ncc(Br)c(Nc2ccc3nccnc3c2P(C)(C)=O)n1 (racemic) [compound 148, (6-((5-bromo-2-((2-methoxy-5-(1-methyl-1H-pyrazol-4-yl)-4-(4-(2-methylmorpholinyl)piperidin-1-yl)phenyl)amino)pyrimidin-4-yl)amino)quinoxalin-5-yl)dimethylphosphine oxide] | 2.78 nM | 124 nM | 5.04 nM | 0.7 nM | 0.64 nM |  |
| COc1cc(N2CCC(N3CC(C)OC(C)C3)CC2)c(-c2cnn(C)c2)cc1Nc1ncc(Br)c(Nc2ccc3nccnc3c2P(C)(C)=O)n1 (racemic) [compound 174] | 7.85 nM | 307 nM | 2.39 nM | 4.63 nM | 0.6 nM |  |
| COc1cc(N2CCC3(CC2)CN(C)CC(C)O3)c(-c2cnn(C)c2)cc1Nc1ncc(Br)c(Nc2ccc3nccnc3c2P(C)(C)=O)n1 (racemic) [compound 217, (6-((5-Bromo-2-((4-(2,4-dimethyl-1-oxa-4,9-diazaspiro[5.5]undecan-9-yl)-2-methoxy-5-(1-methyl-1H-pyrazol-4-yl)phenyl)amino)pyrimidin-4-yl)amino)quinoxalin-5-yl)dimethylphosphine oxide] | 3.29 nM | 60.5 nM | 3.87 nM | 0.94 nM | 0.95 nM |  |
| COc1cc(N2CCC3C(C2)CN3C)c(-c2cnn(C)c2)cc1Nc1ncc(Br)c(Nc2ccc3nccnc3c2P(C)(C)=O)n1 (racemic) [compound 221] | 2.79 nM | 26.2 nM | 1.37 nM | 2.41 nM | 0.09 nM |  |
| COc1cc(N2CCC(N3CC(F)C3)C2)c(-c2cnn(C)c2)cc1Nc1ncc(Br)c(Nc2ccc3nccnc3c2P(C)(C)=O)n1 (racemic) [compound 223, (6-((5-Bromo-2-((4-(3-(3-fluoroazetidin-1-yl)pyrrolidin-1-yl)-2-methoxy-5-(1-methyl-1H-pyrazol-4-yl)phenyl)amino)pyrimidin-4-yl)amino)quinoxalin-5-yl)dimethylphosphine oxide] | 3.56 nM | 76.9 nM | 7 nM | 2.88 nM | 0.17 nM |  |
| COc1cc(N2CC(C)OC(C)C2)c(-c2cnn(C)c2)cc1Nc1ncc(Br)c(Nc2ccc3nccnc3c2P(C)(C)=O)n1 (single isomer, unassigned) [155a] | 15.6 nM | 320 nM | 27.7 nM | 2.98 nM | 0.67 nM |  |
| COc1cc(N2CCC3CCN(CC4CC4)C3C2)c(-c2cnn(C)c2)cc1Nc1ncc(Br)c(Nc2ccc3nccnc3c2P(C)(C)=O)n1 (single isomer, unassigned) [234a] | 3.91 nM | 42.4 nM | 5.04 nM | 2.05 nM | 0.32 nM |  |
| COc1cc(N2CCOCC2)c(-c2cnn(C)c2)cc1Nc1ncc(Br)c(Nc2ccc3nccnc3c2P(C)(C)=O)n1 [Compound 1, (6-((5-bromo-2-((2-methoxy-5-(1-methyl-1H-pyrazol-4-yl)-4-morpholinophenyl)amino)pyrimidin-4-yl)amino)quinoxalin-5-yl)-dimethylphosphine oxide] | 5.61 nM | 137 nM | 0.94 nM | 0.58 nM | 0.12 nM |  |
| COc1cc(N2CCOCC2)c(-c2cnn(C)c2)cc1Nc1ncc(Br)c(Nc2ccccc2P(C)(C)=O)n1 [Compound 2, (2-((5-bromo-2-((2-methoxy-5-(1-methyl-1H-pyrazol-4-yl)-4-morpholinylphenyl)amino)pyrimidin-4-yl)amino)phenyl)dimethylphosphine oxide] | 17.5 nM | 316 nM | 18 nM | 4.21 nM | 0.09 nM |  |
| COc1nc(N2CCOCC2)c(-c2cnn(C)c2)cc1Nc1ncc(Br)c(Nc2ccc3nccnc3c2P(C)(C)=O)n1 [Compound 7, (6-((5-bromo-2-((2-methoxy-5-(1-methyl-1H-pyrazol-4-yl)-6-morpholinylpyridin-3-yl)amino)pyrimidin-4-yl)amino)quinoxalin-5-yl)dimethylphosphine oxide] | 14.8 nM | 159 nM | 9.88 nM | 4.43 nM | 0.23 nM |  |
| COc1cnc(-c2cnn(C)c2)cc1Nc1ncc(C)c(Nc2ccc3nccnc3c2P(C)(C)=O)n1 [compound 53] |  | 294 nM | 87 nM | 62.2 nM | 3.6 nM |  |

Continued, values first:

| GI50 [1] | IC50 ([2]; Homo sapiens, A-431, 72 h) | IC50 [3] | GI50 [4] | IC50 [5] | IC50 ([2]; 72 hours) | SMILES |
| --- | --- | --- | --- | --- | --- | --- |
| 13.3 nM | 402 nM | 15.6 nM | 3.68 nM | 0.47 nM |  | COc1cc(N2CC(C)OC(C)C2)c(-c2cnn(C)c2)cc1Nc1ncc(Br)c(Nc2ccc3nccnc3c2P(C)(C)=O)n1 (racemic) [compound 135, (6-((5-bromo-2-((4-(trans-2,6-dimethylmorpholinyl)-2-methoxy-5-(1-methyl-1H-pyrazol-4-yl)phenyl)amino))pyrimidin-4-yl)amino)quinoxalin-5-yl)dimethylphosphine oxide] |
| 77.8 nM |  | 170 nM | 27.1 nM | 9.81 nM | 1500 nM | COc1cc(N2CC(C)OC(C)C2)c(-c2cnn(C)c2)cc1Nc1ncc(Br)c(Nc2cc3c(cc2P(C)(C)=O)CC3)n1 (racemic) [compound 137] |
| 7.55 nM |  | 21.6 nM | 1.63 nM | 0.8 nM | 213 nM | COc1cc(N2CC(C)OC(C)C2)c(-c2cnn(C)c2)cc1Nc1ncc(Br)c(Nc2ccc3nccnc3c2P(C)(C)=O)n1 (single isomer, unassigned) [155b] |
| 5.65 nM | 38.4 nM | 5.44 nM | 2.52 nM | 0.37 nM |  | COc1cc(N2CC[C@@H]3CCN(CC4CC4)[C@@H]3C2)c(-c2cnn(C)c2)cc1Nc1ncc(Br)c(Nc2ccc3nccnc3c2P(C)(C)=O)n1 (single isomer, unassigned) [234b] |
| 3.7 nM | 120 nM | 6.92 nM | 2.22 nM | 0.74 nM |  | COc1cc(N2CCC3(CC2)CO[C@@H](C)[C@@H]3N(C)C)c(-c2cnn(C)c2)cc1Nc1ncc(Br)c(Nc2ccc3nccnc3c2P(C)(C)=O)n1 (stereo in doubt) [compound 201] |
| 5.96 nM | 24.5 nM | 0.17 nM | 1.99 nM | < 0.05 nM |  | COc1cc(N2CCN(C)CC2)c(-c2cnn(C)c2)cc1Nc1ncc(Br)c(Nc2ccc3nccnc3c2P(C)(C)=O)n1 [Compound 6] |
| 137 nM | 769 nM | 358 nM | 69 nM | 3.19 nM |  | COc1cc(N2CCOCC2)c(-c2cnn(S(=O)(=O)C3CC3)c2)cc1Nc1ncc(Br)c(Nc2ccc3nccnc3c2P(C)(C)=O)n1 [Compound 8, (6-((5-bromo-2-((5-(1-(cyclopropylsulfonyl)-1H-pyrazol-4-yl)-2-methoxy-4-morpholinylphenyl)amino)pyrimidin-4-yl)amino)quinoxalin-5-yl)dimethylphosphine oxide] |
| 84.3 nM | 398 nM | 7.62 nM | 43.4 nM | 0.89 nM |  | COc1cc(N2CCOCC2)c(-c2cnn(C)c2)cc1Nc1ncc(C#N)c(Nc2ccc3nccnc3c2P(C)(C)=O)n1 [Compound 13, 4-((5-(dimethylphosphoryl)quinoxalin-6-yl)amino)-2-((2-methoxy-5-(1-methyl-1H-pyrazol-4-yl)-4-morpholinylphenyl)amino)pyrimidine-5-carbonitrile] |
| 36.8 nM | 292 nM | 111 nM |  | 0.11 nM |  | Cn1cc(-c2cc(Nc3ncc(Br)c(Nc4ccc5nccnc5c4P(C)(C)=O)n3)c3c(c2N2CCOCC2)CCCO3)cn1 [compound 51] |

Reference: patent publication US20230219986A1, “NOVEL AMINOPYRIMIDINE EGFR INHIBITOR” (QILU PHARMACEUTICAL CO., LTD., priority 2020, published 2023)
